The structures appear in SMILES notation. “And” between values parts separate entries of the source, which are not always exact repeats. Equal values may be shown once. Inconclusive results and toxic doses are left out.

Among the data in PubChem BioAssay AID330 (DTP/NCI, 2004) are T/C values, retold here.

The subject of the experiment is P388 leukemia ip, CD2F1 mice, survival T/C. Put plainly: NCI In Vivo Anticancer Drug Screen. Data for tumor model P388 Leukemia (intraperitoneal) in CD2F1 (CDF1) mice. The conditions noted are these: endpoint: median survival time, higher = longer survival. The method in brief:
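Mice carrying the transplanted tumor received test compound or vehicle. Survival was recorded in each group, and the value is the treated-group measurement divided by that of the vehicle-treated control group.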

[1] abbreviates: dose: 50.0 mg/kg/injection, schedule: Q01DX009 (ip), vehicle: saline.
The mark [2] stands for this setting: dose: 100.0 mg/kg/injection, schedule: Q01DX009 (ip), vehicle: saline with Tween-80.
The mark [3] stands for this setting: dose: 100.0 mg/kg/injection, schedule: Q01DX009 (ip), vehicle: saline.
Where [4] appears, read: dose: 100.0 mg/kg/injection, schedule: Q04DX003 (ip), vehicle: saline with Tween-80.
The mark [5] stands for this setting: dose: 200.0 mg/kg/injection, schedule: Q01DX009 (ip), vehicle: saline.
[6] abbreviates: dose: 25.0 mg/kg/injection, schedule: Q01DX009 (ip), vehicle: saline with Tween-80.
Where [7] appears, read: dose: 50.0 mg/kg/injection, schedule: Q01DX009 (ip), vehicle: saline with Tween-80.
Setting [8] is: dose: 50.0 mg/kg/injection, schedule: Q01DX005 (ip), vehicle: saline.
[9] abbreviates: dose: 100.0 mg/kg/injection, schedule: Q01DX005 (ip), vehicle: saline.
The mark [10] stands for this setting: dose: 200.0 mg/kg/injection, schedule: Q01DX005 (ip), vehicle: saline.

Take `CCc1ccccc1N1CCN(C(=O)c2cc(OC)c(OC)c(OC)c2)CC1`: the T/C is 95 % of control (dose: 12.5 mg/kg/injection, schedule: Q01DX009 (ip), vehicle: Klucel (hydroxypropylcellulose) (HPC)); 100 % of control and 120 % of control (dose: 12.5 mg/kg/injection, schedule: Q01DX009 (ip), vehicle: saline); 104 % of control (dose: 25.0 mg/kg/injection, schedule: Q01DX009 (ip), vehicle: Klucel (hydroxypropylcellulose) (HPC)); 102 % of control and 91 % of control (dose: 25.0 mg/kg/injection, schedule: Q01DX009 (ip), vehicle: saline); 120 % of control (dose: 44.0 mg/kg/injection, schedule: Q01DX009 (ip), vehicle: saline with Tween-80); 113 % of control (dose: 50.0 mg/kg/injection, schedule: Q01DX009 (ip), vehicle: Klucel (hydroxypropylcellulose) (HPC)). Besides, the T/C by setting is: under setting [1], 102 % of control and 93 % of control; (dose: 66.0 mg/kg/injection, schedule: Q01DX009 (ip), vehicle: saline with Tween-80) 115 % of control; (dose: 75.0 mg/kg/injection, schedule: Q04DX003 (ip), vehicle: saline with Tween-80) 109 % of control; under setting [2], 115 % of control; under setting [3], 90 % of control and 93 % of control; under setting [4], 105 % of control. In addition, the T/C reads like this: (dose: 150.0 mg/kg/injection, schedule: Q01DX009 (ip), vehicle: saline with Tween-80) 150 % of control; (dose: 150.0 mg/kg/injection, schedule: Q04DX003 (ip), vehicle: saline with Tween-80) 114 % of control; (dose: 200.0 mg/kg/injection, schedule: Q01DX009 (ip), vehicle: Klucel (hydroxypropylcellulose) (HPC)) 92 % of control; under setting [5], 88 % of control; (dose: 225.0 mg/kg/injection, schedule: Q04DX003 (ip), vehicle: saline with Tween-80) 121 % of control; (dose: 300.0 mg/kg/injection, schedule: Q04DX003 (ip), vehicle: saline with Tween-80) 100 % of control. The T/C (dose: 400.0 mg/kg/injection, schedule: Q01DX009 (ip), vehicle: saline) was 95 % of control.

For `c1ccc2c(c1)Sc1ccccc1N2CC1CN2CCC1CC2` (centres undefined), the T/C was 107 % of control (dose: 6.25 mg/kg/injection, schedule: Q01DX009 (ip), vehicle: saline with Tween-80); 98 % of control and 114 % of control (dose: 12.5 mg/kg/injection, schedule: Q01DX009 (ip), vehicle: saline with Tween-80); 112 % of control and 123 % of control under setting [6]; 104 % of control under setting [7].

For `COc1ccc2nc3ccccc3c(NCCCCCCCCNc3c4ccccc4nc4ccc(OC)cc34)c2c1`, the T/C by setting is: (dose: 0.63 mg/kg/injection, schedule: Q01DX009 (ip), vehicle: other) 113 % of control; (dose: 1.25 mg/kg/injection, schedule: Q01DX009 (ip), vehicle: other) 109 % of control; (dose: 2.5 mg/kg/injection, schedule: Q01DX009 (ip), vehicle: other) 104 % of control; (dose: 3.75 mg/kg/injection, schedule: Q01DX009 (ip), vehicle: other) 109 % of control; (dose: 5.0 mg/kg/injection, schedule: Q01DX009 (ip), vehicle: other) 113 % of control; (dose: 7.5 mg/kg/injection, schedule: Q01DX009 (ip), vehicle: other) 120 % of control.

Consider `CC1OC(O[C@@H]2C=C3CC[C@@H]4[C@H](CC[C@]5(C)[C@@H](c6ccc(=O)oc6)CC[C@]45O)[C@@]3(C)CC2)C(O)C(O)C1O` (some centres undefined), for which the T/C was 110 % of control (dose: 1.25 mg/kg/injection, schedule: Q01DX010 (sc), vehicle: steriod suspending solution); 110 % of control (dose: 2.5 mg/kg/injection, schedule: Q01DX010 (sc), vehicle: steriod suspending solution); 110 % of control (dose: 5.0 mg/kg/injection, schedule: Q01DX010 (sc), vehicle: steriod suspending solution); 115 % of control (dose: 10.0 mg/kg/injection, schedule: Q01DX010 (sc), vehicle: steriod suspending solution).

For the compound `O=C1NN2CCCN=C2c2cnccc21`, the T/C is 110 % of control under setting [8], 97 % of control under setting [9] and 89 % of control under setting [10].

On to `CC(C)=NNC(=O)C1CCN1Cc1ccccc1` (centres undefined), for which the T/C (dose: 50.0 mg/kg/injection, schedule: Q01DX001 (ip), vehicle: saline) was 106 % of control; the T/C (dose: 100.0 mg/kg/injection, schedule: Q01DX001 (ip), vehicle: saline) is 106 % of control; the T/C (dose: 200.0 mg/kg/injection, schedule: Q01DX001 (ip), vehicle: saline) is 111 % of control; the T/C (dose: 400.0 mg/kg/injection, schedule: Q01DX001 (ip), vehicle: saline) is 106 % of control.

Regarding `O=C(O)CCC(=O)C1=CSC(=C2SC=CS2)S1`, the T/C (dose: 60.0 mg/kg/injection, schedule: Q01DX005 (ip), vehicle: Klucel + Tween-80) was 106 % of control.

Consider `CCC(Br)C(=O)SC(C)(C)C` (centres undefined), for which the T/C was 111 % of control under setting [4] and 106 % of control (dose: 200.0 mg/kg/injection, schedule: Q04DX003 (ip), vehicle: saline with Tween-80).

For the compound `Nc1nc(N)c2[nH]c(N=Nc3ccc(N(CCO)CCO)cc3)nc2n1`, the T/C by setting is: (dose: 50.0 mg/kg/injection, schedule: Q01DX005 (ip), vehicle: saline with Tween-80) 106 % of control; (dose: 100.0 mg/kg/injection, schedule: Q01DX005 (ip), vehicle: saline with Tween-80) 106 % of control; (dose: 200.0 mg/kg/injection, schedule: Q01DX005 (ip), vehicle: saline with Tween-80) 108 % of control.

As to `COC(=O)C1CC(c2ccccc2)N(C(C)(C)C)O1` (centres undefined), the T/C by setting is: (dose: 100.0 mg/kg/injection, schedule: Q04DX002 (ip), vehicle: saline with Tween-80) 97 % of control; (dose: 200.0 mg/kg/injection, schedule: Q04DX002 (ip), vehicle: saline with Tween-80) 100 % of control; (dose: 400.0 mg/kg/injection, schedule: Q04DX002 (ip), vehicle: saline with Tween-80) 100 % of control.

With `Cc1ccnc2n[nH]nc12`, the T/C is 109 % of control (dose: 100.0 mg/kg/injection, schedule: Q04DX002 (ip), vehicle: water); 107 % of control (dose: 200.0 mg/kg/injection, schedule: Q04DX002 (ip), vehicle: water); 103 % of control (dose: 400.0 mg/kg/injection, schedule: Q04DX002 (ip), vehicle: water).

Turning to `Nc1cc(C(F)(F)F)ccc1-c1ccn[nH]1`, the T/C is 94 % of control under setting [1], 97 % of control under setting [3] and 96 % of control under setting [5].

Consider `Cc1cc(N)c(C)c(C)c1O`, for which the T/C under setting [6] is 113 % of control; the T/C (dose: 25.0 mg/kg/injection, schedule: Q04DX003 (ip), vehicle: saline with Tween-80) is 100 % of control; the T/C under setting [7] was 118 % of control; the T/C (dose: 50.0 mg/kg/injection, schedule: Q04DX003 (ip), vehicle: saline with Tween-80) was 110 % of control; the T/C under setting [4] is 110 % of control.

Turning to `CC1CCCC(C)N1C(=O)OCC12COC3(C)CCC(C)(OC1)N23` (centres undefined), the T/C runs as follows: (dose: 25.0 mg/kg/injection, schedule: Q01DX005 (ip), vehicle: saline) 100 % of control; (dose: 50.0 mg/kg/injection, schedule: Q01DX005 (ip), vehicle: Klucel (hydroxypropylcellulose) (HPC)) 95 % of control; under setting [8], 99 % of control and 100 % of control; (dose: 100.0 mg/kg/injection, schedule: Q01DX005 (ip), vehicle: Klucel (hydroxypropylcellulose) (HPC)) 109 % of control; under setting [9], 104 % of control and 108 % of control; (dose: 200.0 mg/kg/injection, schedule: Q01DX005 (ip), vehicle: Klucel (hydroxypropylcellulose) (HPC)) 109 % of control. Moreover, under setting [10], the T/C was 122 % of control and 96 % of control.

With `CC1(C)CN(C(C)(C)C)CN2C1OCC2(C)C` (centres undefined), the T/C runs as follows: under setting [7], 101 % of control; under setting [2], 112 % of control; (dose: 200.0 mg/kg/injection, schedule: Q01DX009 (ip), vehicle: saline with Tween-80) 112 % of control.

In the case of `COc1cc2ccc(/C=C\[N+](=O)[O-])cc2cc1OC`, the T/C (dose: 3.13 mg/kg/injection, schedule: Q01DX009 (ip), vehicle: other) was 105 % of control; the T/C (dose: 6.25 mg/kg/injection, schedule: Q01DX009 (ip), vehicle: other) is 108 % of control; the T/C (dose: 12.5 mg/kg/injection, schedule: Q01DX009 (ip), vehicle: other) was 107 % of control; the T/C (dose: 25.0 mg/kg/injection, schedule: Q01DX009 (ip), vehicle: other) is 108 % of control.
